Reference: patent US20250179027A1, “CYCLOALKYL OR HETEROCYCLYL SUBSTITUTED HETEROARYL COMPOUND, AND COMPOSITION AND USE THEREOF” (Shenzhen TargetRx, Inc., priority 2022, published 2025)

Assays:
[1] = biological target: T1, phosphorylated BTK Y223 in NIH/3T3 BTK C481S cells (Homo sapiens, UniProt Q06187, C481S); experiment: Phosphor-BTK(Y223) assay, NIH/3T3 BTK C481S cells; format: cell-based; conditions: phosphorylated BTK Y223, NIH/3T3 BTK C481S cells; read-out: NIH/3T3 BTK-C481S pBTK IC50
T1 construct: expressed in transfected cells; host or cells: NIH/3T3 (mouse fibroblasts) engineered to express BTK C481S
T1 sequence (Q06187 whole entry C481S): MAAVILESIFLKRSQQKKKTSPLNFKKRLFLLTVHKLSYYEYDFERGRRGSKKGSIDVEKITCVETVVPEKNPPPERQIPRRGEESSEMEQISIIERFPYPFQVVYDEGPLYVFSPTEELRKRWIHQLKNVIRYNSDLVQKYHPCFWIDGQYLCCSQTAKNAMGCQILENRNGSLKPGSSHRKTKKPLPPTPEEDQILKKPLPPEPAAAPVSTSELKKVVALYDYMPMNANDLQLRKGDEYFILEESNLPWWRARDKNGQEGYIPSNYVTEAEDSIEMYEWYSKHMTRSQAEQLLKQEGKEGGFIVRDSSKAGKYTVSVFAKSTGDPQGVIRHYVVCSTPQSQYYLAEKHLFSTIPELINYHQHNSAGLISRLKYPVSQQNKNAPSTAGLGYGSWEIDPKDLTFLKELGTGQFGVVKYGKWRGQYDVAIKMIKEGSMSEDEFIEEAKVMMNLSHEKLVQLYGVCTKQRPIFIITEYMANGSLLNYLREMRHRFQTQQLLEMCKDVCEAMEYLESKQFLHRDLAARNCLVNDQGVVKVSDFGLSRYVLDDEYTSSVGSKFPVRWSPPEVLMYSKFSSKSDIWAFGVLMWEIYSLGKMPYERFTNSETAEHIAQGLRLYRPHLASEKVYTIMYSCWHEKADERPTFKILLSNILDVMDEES
Method: (§1) The purpose of this assay is to simply, quickly and directly detect the endogenous level of BTK in cells. The specific assay steps are as follows: Day 1: NIH/3T3 BTK WT cells (7.5 k/well) and NIH/3T3 BTK C481S cells (10 k/well) were plated in 96-well plates, respectively, and cultured overnight at 37° C. and 5% CO2.
(§2) • 1. A 3-fold final concentration gradient dilution of the compound was prepared, and 50 μL was added to 100 μL of cell culture; 0.5% DMSO was used as a positive control for cell growth. • 2. The plate was incubated at 37° C., 5% CO2 for 0.5 h. • 3. Na3VO4 with a final concentration of 1 mM was added, and incubated at 37° C. and 5% CO2 for 2 hours. • 4. During the incubation, the following reagents were prepared: 1× added lysis buffer: 3 vol ddH2O+1 vol 4× lysis buffer+100× blocking reagent. p-BTK (Y223) cryptate-antibody and p-BTK (Y223) d2-antibody working solutions: 1 volume of each cryopreserved antibody (stored at −20° C.) was added to 19 times volumes of assay buffer (stored at 4° C.). • 5. After the incubation, the medium was removed and 50 μL of 1× added lysis buffer was added; The mixture was centrifuged at 500 rpm for 30 min at room temperature. • 6. The lysate was mixed well and 16 μL was transferred to a 384-well plate; 1× added lysis buffer was used as a blank control. • 7. 4 μL of pre-mixed working solutions of the two antibodies (cryptate Ab:d2 Ab=1:1) were added and the plate was sealed. • 8. The plate was incubated overnight at room temperature.
(§3) Biotek cytation3.0 microplate reader was used to read the plate at 665 nm and 620 nm, and the ratio of 665/620 nm per well was calculated.
(§4) IC50 was calculated using GraphPad Prism 7.0 software.
(§5) The following nonlinear fitting formula was used to obtain the phosphorylated BTK Y223 IC50 (half phosphorylation inhibitory concentration) of the compounds:
(§6) [formula] • X: Compound concentration log value • Y: Inhibition rate (% inhibition)
(§7) The formula for calculating cell phosphorylation inhibition rate (% inhibition rate) was: […]

[2] = biological target: T2, phosphorylated BTK Y223 in NIH/3T3 BTK WT cells (Homo sapiens, UniProt Q06187); experiment: Phosphor-BTK(Y223) assay, NIH/3T3 BTK WT cells; format: cell-based; conditions: phosphorylated BTK Y223, NIH/3T3 BTK WT cells; read-out: NIH/3T3 BTK-WT pBTK IC50
T2 construct: expressed in transfected cells; host or cells: NIH/3T3 (mouse fibroblasts) engineered to express BTK WT
T2 sequence (Q06187 whole entry): as the sequence (Q06187 whole entry C481S) above, with S481C counted along it
Method: as §1, §2, §3, §4, §5, §6, §7

IC50 [1] [nM] | IC50 [2] [nM] | Structure (SMILES)
50 to 100 | 25 to 50 | COc1ccc(F)cc1C(=O)NCc1ccc(-n2cc(C3CCC(CO)OC3)c3ncnc(N)c32)cc1 (single isomer, unassigned) [Example 51, N-(4-(4-amino-7-(6-(hydroxymethyl)tetrahydro-2H-pyran-3-yl)-5H-pyrrolo[3,2-d]pyrimidin-5-yl)benzyl)-5-fluoro-2-methoxybenzamide]
50 to 100 | 50 to 100 | COc1ccc(F)cc1C(=O)NCc1ccc(-c2nn(C3CCC(O)C3)c3c(=O)[nH]nc(N)c23)cc1 (stereo not shown) [Example 42, N-(4-(4-amino-1-(3-hydroxycyclopentanyl)-7-oxo-6,7-dihydro-1H-pyrazolo[3,4-d]pyridazin-3-yl)benzyl)-5-fluoro-2-methoxybenzamide]
25 to 50 | ≤ 25 | COc1ccc(F)cc1C(=O)NCc1ccc(-c2cc(C3CCC(CO)OC3)n3ncnc(N)c23)cc1 (single isomer, unassigned) [Example 62, N-(4-(4-amino-7-(6-(hydroxymethyl)tetrahydro-2H-pyran-3-yl)pyrrolo[2,1-f][1,2,4]triazin-5-yl)benzyl)-5-fluoro-2-methoxybenzamide]
25 to 50 | 25 to 50 | COc1ccc(F)cc1C(=O)NCc1ccc(-c2nn(C3CCCC(C)(O)C3)c3ncnc(N)c23)cc1 (single isomer, unassigned) [Example 23, N-(4-(4-amino-1-(3-hydroxy-3-methylcyclohexanyl)-1H-pyrazolo[3,4-d]pyrimidin-3-yl)benzyl)-5-fluoro-2-methoxybenzamide]
100 to 500 | 100 to 500 | COc1ccc(F)cc1C(=O)NCc1ccc(-c2nn(C3CCC(CO)OC3)c3ncnc(N)c23)cc1 (single isomer, unassigned) [Example 17, N-(4-(4-amino-1-(6-(hydroxymethyl)tetrahydro-2H-pyran-3-yl)-1H-pyrazolo[3,4-d]pyrimidin-3-yl)benzyl)-5-fluoro-2-methoxybenzamide]
100 to 500 | 50 to 100 | COc1ccc(F)cc1C(=O)NCc1ccc(-n2cc(C3CCC(CO)OC3)c3ncnc(N)c32)cc1 (single isomer, unassigned) [Example 52, N-(4-(4-amino-7-(6-(hydroxymethyl)tetrahydro-2H-pyran-3-yl)-5H-pyrrolo[3,2-d]pyrimidin-5-yl)benzyl)-5-fluoro-2-methoxybenzamide]
100 to 500 | 50 to 100 | COc1ccc(F)cc1C(=O)NCc1ccc(-c2nn(C3CCC(CO)OC3)c(N)c2C(N)=O)cc1 (single isomer, unassigned) [Example 13, 5-amino-3-(4-((5-fluoro-2-methoxybenzamido)methyl)phenyl)-1-(6-(hydroxymethyl)tetrahydro-2H-pyran-3-yl)-1H-pyrazole-4-carboxamide]
25 to 50 | ≤ 25 | COc1ccc(F)cc1C(=O)NCc1ccc(-c2cc(C3CCC(CO)OC3)n3ncnc(N)c23)cc1 (stereo not shown) [Example 58, N-(4-(4-amino-7-(6-(hydroxymethyl)tetrahydro-2H-pyran-3-yl)pyrrolo[2,1-f][1,2,4]triazin-5-yl)benzyl)-5-fluoro-2-methoxybenzamide]
25 to 50 | ≤ 25 | COc1ccc(F)cc1C(=O)NCc1ccc(-c2nn(C3CCCC(C)(O)C3)c3ncnc(N)c23)cc1 (single isomer, unassigned) [Example 24, N-(4-(4-amino-1-(3-hydroxy-3-methylcyclohexanyl)-1H-pyrazolo[3,4-d]pyrimidin-3-yl)benzyl)-5-fluoro-2-methoxybenzamide]
25 to 50 | ≤ 25 | COc1ccc(F)cc1C(=O)NCc1ccc(-c2nn(C3CCCC(C)(O)C3)c3ncnc(N)c23)cc1 (single isomer, unassigned) [Example 27, N-(4-(4-amino-1-(3-hydroxy-3-methylcyclohexanyl)-1H-pyrazolo[3,4-d]pyrimidin-3-yl)benzyl)-5-fluoro-2-methoxybenzamide]
≤ 25 | ≤ 25 | COc1ccc(F)cc1C(=O)NCc1ccc(-c2nn([C@H]3CCC[C@H](O)C3)c3ncnc(N)c23)cc1 (racemic) [Example 9, trans-N-(4-(4-amino-1-(3-hydroxycyclohexanyl)-1H-pyrazolo[3,4-d]pyrimidin-3-yl)benzyl)-5-fluoro-2-methoxybenzamide]
100 to 500 | 100 to 500 | COc1ccc(F)cc1C(=O)NCc1ccc(-c2nn(C3CCC(CO)OC3)c3c(=O)[nH]nc(N)c23)cc1 (single isomer, unassigned) [Example 47, N-(4-(4-amino-1-(6-(hydroxymethyl)tetrahydro-2H-pyran-3-yl)-7-oxo-6,7-dihydro-1H-pyrazolo[3,4-d]pyridazin-3-yl)benzyl)-5-fluoro-2-methoxybenzamide]
50 to 100 | 25 to 50 | COc1ccc(F)cc1C(=O)NCc1ccc(-c2nc(C3CCCC(O)C3)n3ccnc(N)c23)cc1 (single isomer, unassigned) [Example 21, N-(4-(8-amino-3-(3-hydroxycyclohexanyl)imidazo[1,5-a]pyrazin-1-yl)benzyl)-5-fluoro-2-methoxybenzamide]
50 to 100 | 25 to 50 | COc1ccc(F)cc1C(=O)NCc1ccc(-c2nn(C3CCCC(C)(O)C3)c3ncnc(N)c23)cc1 (single isomer, unassigned) [Example 26, N-(4-(4-amino-1-(3-hydroxy-3-methylcyclohexanyl)-1H-pyrazolo[3,4-d]pyrimidin-3-yl)benzyl)-5-fluoro-2-methoxybenzamide]
50 to 100 | ≤ 25 | COc1ccc(F)cc1C(=O)NCc1ccc(-c2nn(C3CCC(CO)OC3)c3ncnc(N)c23)cc1 (stereo not shown) [Example 15, N-(4-(4-amino-1-(6-(hydroxymethyl)tetrahydro-2H-pyran-3-yl)-1H-pyrazolo[3,4-d]pyrimidin-3-yl)benzyl)-5-fluoro-2-methoxybenzamide]
25 to 50 | ≤ 25 | COc1ccc(F)cc1C(=O)NCc1ccc(-c2cc(C3CCC(CO)OC3)n3ncnc(N)c23)cc1 (single isomer, unassigned) [Example 61, N-(4-(4-amino-7-(6-(hydroxymethyl)tetrahydro-2H-pyran-3-yl)pyrrolo[2,1-f][1,2,4]triazin-5-yl)benzyl)-5-fluoro-2-methoxybenzamide]
25 to 50 | ≤ 25 | COc1ccc(F)cc1C(=O)NCc1ccc(-c2nn([C@@H]3C=C[C@@H](O)C3)c3ncnc(N)c23)cc1 (single isomer, unassigned) [Example 50, trans-N-(4-(4-amino-1-(4-hydroxycyclopent-2-en-1-yl)-1H-pyrazolo[3,4-d]pyrimidin-3-yl)benzyl)-5-fluoro-2-methoxybenzamide]
 | 100 to 500 | COc1ccc(F)cc1C(=O)NCc1ccc(-c2nn(C3CCC(CO)OC3)c3c(=O)[nH]nc(N)c23)cc1 (single isomer, unassigned) [Example 48, N-(4-(4-amino-1-(6-(hydroxymethyl)tetrahydro-2H-pyran-3-yl)-7-oxo-6,7-dihydro-1H-pyrazolo[3,4-d]pyridazin-3-yl)benzyl)-5-fluoro-2-methoxybenzamide]

Structure (SMILES) | IC50 [1] [nM] | IC50 [2] [nM]
COc1ccc(F)cc1C(=O)NCc1ccc(-c2nn([C@H]3CC[C@H](O)CC3)c3c(=O)[nH]nc(N)c23)cc1 [Example 40, trans-N-(4-(4-amino-1-((1R,4R)-4-hydroxycyclohexanyl)-7-oxo-6,7-dihydro-1H-pyrazolo[3,4-d]pyridazin-3-yl)benzyl)-5-fluoro-2-methoxybenzamide] | 50 to 100 | 25 to 50
